Assay results as given in ChEMBL document CHEMBL1126522, “Indolocarbazoles. 1. Total synthesis and protein kinase inhibiting characteristics of compounds related to K-252c” (Bioorg Med Chem Lett, 1993).

Target: cAMP-dependent protein kinase (PKA) (Homo sapiens, UniProt P22694+P17612+P22612)
Assay: Inhibition of cAMP-dependent protein kinase (PKA)
Format: protein assay

Q: For O=C1NC(=O)c2c1c1c3ccccc3n3c1c1c2c2ccccc2n1[C@@H]1O[C@H]3C[C@@H]1CO, which IC50 is on record?
A: Its IC50 is 18.5 nM.

Target: Receptor tyrosine-protein kinase erbB-2 (Homo sapiens, UniProt P04626)
Assay: Inhibition of neu (erb-B2) HER2 kinase

Sequence of Receptor tyrosine-protein kinase erbB-2 (P04626 whole entry): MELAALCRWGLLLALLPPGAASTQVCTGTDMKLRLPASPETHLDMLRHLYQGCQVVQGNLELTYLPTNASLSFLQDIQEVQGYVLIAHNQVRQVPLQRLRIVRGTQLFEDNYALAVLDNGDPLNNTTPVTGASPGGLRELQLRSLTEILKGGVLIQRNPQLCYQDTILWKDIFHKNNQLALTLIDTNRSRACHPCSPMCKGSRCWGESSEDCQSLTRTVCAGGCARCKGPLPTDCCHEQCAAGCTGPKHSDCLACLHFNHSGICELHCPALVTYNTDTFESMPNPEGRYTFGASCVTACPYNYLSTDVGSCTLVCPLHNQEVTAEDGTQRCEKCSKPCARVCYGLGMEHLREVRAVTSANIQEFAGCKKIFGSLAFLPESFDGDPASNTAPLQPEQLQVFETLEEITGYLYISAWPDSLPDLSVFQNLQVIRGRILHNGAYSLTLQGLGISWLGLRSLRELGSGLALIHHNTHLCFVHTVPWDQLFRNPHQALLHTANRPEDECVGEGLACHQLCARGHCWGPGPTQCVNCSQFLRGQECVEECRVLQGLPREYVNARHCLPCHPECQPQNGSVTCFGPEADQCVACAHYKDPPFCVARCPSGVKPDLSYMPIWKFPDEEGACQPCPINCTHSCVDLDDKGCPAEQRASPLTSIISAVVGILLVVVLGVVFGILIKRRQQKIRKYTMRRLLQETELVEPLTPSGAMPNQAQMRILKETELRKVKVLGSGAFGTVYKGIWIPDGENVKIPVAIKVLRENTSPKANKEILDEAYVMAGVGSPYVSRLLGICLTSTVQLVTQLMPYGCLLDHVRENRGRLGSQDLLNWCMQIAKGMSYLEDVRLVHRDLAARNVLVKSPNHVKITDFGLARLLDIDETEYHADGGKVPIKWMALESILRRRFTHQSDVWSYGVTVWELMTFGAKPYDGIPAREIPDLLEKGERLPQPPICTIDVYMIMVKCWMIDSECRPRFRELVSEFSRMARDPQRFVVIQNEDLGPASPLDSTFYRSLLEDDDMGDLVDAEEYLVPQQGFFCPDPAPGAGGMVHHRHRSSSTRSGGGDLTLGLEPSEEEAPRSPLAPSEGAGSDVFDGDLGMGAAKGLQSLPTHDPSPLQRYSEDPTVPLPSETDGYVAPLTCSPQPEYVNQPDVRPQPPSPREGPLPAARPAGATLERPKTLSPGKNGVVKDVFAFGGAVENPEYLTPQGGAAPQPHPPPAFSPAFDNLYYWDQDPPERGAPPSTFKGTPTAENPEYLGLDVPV

Q: With O=C1NC(=O)c2c1c1c3ccccc3n3c1c1c2c2ccccc2n1[C@@H]1O[C@H]3C[C@@H]1CO as the compound, how does the IC50 read?
A: The IC50 was 250 nM.

Target: Protein kinase C (PKC) (Rattus norvegicus) (UniProt P05696+P68403+P09216+P63319+P09215+Q64617+Q9WTQ0+P09217)
Assay: Inhibition of partially purified rat brain protein kinase C

Q: For NN1C(=O)c2c(c3c4ccccc4n4c3c3c2c2ccccc2n3[C@@H]2CC[C@H]4O2)C1=O, which Inhibition is on record?
A: The Inhibition was greater than 5000 nM.

Q: Which Inhibition does the source give for O=C1NC(=S)c2c1c1c3ccccc3n3c1c1c2c2ccccc2n1[C@H]1CC[C@@H]3O1 here?
A: The Inhibition was 58 nM.

Q: Which Inhibition does the source give for C=C1C[C@@H]2O[C@H]1n1c3ccccc3c3c4c(c5c6ccccc6n2c5c31)C(=O)NC4=O here?
A: The Inhibition was 5 nM.

Q: For CNC(=O)[C@@H]1C[C@@H]2O[C@H]1n1c3ccccc3c3c4c(c5c6ccccc6n2c5c31)C(=O)NC4=O, which Inhibition is on record?
A: The Inhibition was 0.5 nM.

Q: With O=C1NC(=O)c2c1c1c3ccccc3n3c1c1c2c2ccccc2n1[C@@H]1O[C@H]3C[C@H]1C(=O)O as the compound, how does the Inhibition read?
A: Its Inhibition is 20 nM.

Q: For O=C1NC(=O)c2c1c1c3ccccc3n3c1c1c2c2ccccc2n1[C@@H]1O[C@H]3C[C@@]1(O)C(=O)O, which Inhibition is on record?
A: Its Inhibition is 6 nM.

Q: With S=C1NC(=S)c2c1c1c3ccccc3n3c1c1c2c2ccccc2n1[C@H]1CC[C@@H]3O1 as the compound, how does the Inhibition read?
A: Its Inhibition is 42 nM.

Q: With O=C1NC(=O)c2c1c1c3ccccc3n3c1c1c2c2ccccc2n1[C@H]1CC[C@@H]3O1 as the compound, how does the Inhibition read?
A: The Inhibition was 19 nM.

Q: With CN(C)C[C@@H]1C[C@@H]2O[C@H]1n1c3ccccc3c3c4c(c5c6ccccc6n2c5c31)C(=O)NC4=O as the compound, how does the Inhibition read?
A: The Inhibition was 4 nM.

Q: Which Inhibition does the source give for O=C1NC(=O)c2c1c1c3ccccc3n3c1c1c2c2ccccc2n1[C@@H]1O[C@H]3C[C@H]1CO here?
A: Its Inhibition is 2.4 nM.

Q: Which Inhibition does the source give for NC1=NC(=O)c2c1c1c3ccccc3n3c1c1c2c2ccccc2n1[C@@H]1CC[C@H]3O1 here?
A: Its Inhibition is 13 nM.

Q: Which Inhibition does the source give for CN1C(=O)c2c(c3c4ccccc4n4c3c3c2c2ccccc2n3[C@@H]2CC[C@H]4O2)C1=O here?
A: Its Inhibition is greater than 5000 nM.

Q: With O=C1NCc2c1c1c3ccccc3n3c1c1c2c2ccccc2n1[C@H]1CC[C@@H]3O1 as the compound, how does the Inhibition read?
A: The Inhibition was 18 nM.

Q: For O=C1NC(O)c2c1c1c3ccccc3n3c1c1c2c2ccccc2n1[C@H]1CC[C@@H]3O1 (stereo partly drawn), which Inhibition is on record?
A: The Inhibition was 50 nM.

Q: Which Inhibition does the source give for O=C1NC(=O)c2c1c1c3ccccc3n3c1c1c2c2ccccc2n1[C@@H]1O[C@H]3C[C@@H]1CO here?
A: The Inhibition was 1.7 nM.

Target: not listed separately
Assay: Displacement of ATP from myosin light chain kinase

Q: With O=C1NC(=O)c2c1c1c3ccccc3n3c1c1c2c2ccccc2n1[C@@H]1O[C@H]3C[C@@H]1CO as the compound, how does the Ki read?
A: Its Ki is 0.7 nM.
